Laboratory results published in US8143226B2, “Tyrosine kinase receptor antagonists and methods of treatment for breast cancer” (The Regents of the University of California, priority 2005, dated 2012).

Columns and labels:
Assay type in all cases: cell-based
MCF-7/HER2-18 cells = experiment: Tamoxifen and/or NDGA growth inhibition of MCF-7/HER2-18 cells (CyQuant); conditions: Homo sapiens, 144 h; MCF-7/HER2-18 cells, tamoxifen 100 nM, 6 days
Procedure: (§1) Cells were estrogen-starved for three days in DMEM containing 10% charcoal-[…]-stripped FCS (CDSS) prior to their plating in 96 well plates. Cells were plated in 100 μl of the same media, allowed to adhere overnight, and then were switched to DMEM+10% CDSS supplemented with 100 pM estrogen. […] The media and inhibitors were refreshed on day 3, the cultures were harvested on day 6, and a CyQuant assay was performed as described above.

MCF-7/neo cells = experiment: Tamoxifen and/or NDGA growth inhibition of MCF-7/neo cells (CyQuant); conditions: Homo sapiens, MCF7, 144 h; MCF-7/neo cells, tamoxifen 100 nM, 6 days
Procedure: as §1

IGF-1R = IGF-1R (Homo sapiens, UniProt P08069); experiment: IGF-1R phosphorylation ELISA in MCF-7/HER2-18 cells; parameters: endogenous in cells; host or cells: MCF-7/HER2-18; conditions: 3 nM IGF-I 10 min
Sequence of IGF-1R (P08069 31-1367): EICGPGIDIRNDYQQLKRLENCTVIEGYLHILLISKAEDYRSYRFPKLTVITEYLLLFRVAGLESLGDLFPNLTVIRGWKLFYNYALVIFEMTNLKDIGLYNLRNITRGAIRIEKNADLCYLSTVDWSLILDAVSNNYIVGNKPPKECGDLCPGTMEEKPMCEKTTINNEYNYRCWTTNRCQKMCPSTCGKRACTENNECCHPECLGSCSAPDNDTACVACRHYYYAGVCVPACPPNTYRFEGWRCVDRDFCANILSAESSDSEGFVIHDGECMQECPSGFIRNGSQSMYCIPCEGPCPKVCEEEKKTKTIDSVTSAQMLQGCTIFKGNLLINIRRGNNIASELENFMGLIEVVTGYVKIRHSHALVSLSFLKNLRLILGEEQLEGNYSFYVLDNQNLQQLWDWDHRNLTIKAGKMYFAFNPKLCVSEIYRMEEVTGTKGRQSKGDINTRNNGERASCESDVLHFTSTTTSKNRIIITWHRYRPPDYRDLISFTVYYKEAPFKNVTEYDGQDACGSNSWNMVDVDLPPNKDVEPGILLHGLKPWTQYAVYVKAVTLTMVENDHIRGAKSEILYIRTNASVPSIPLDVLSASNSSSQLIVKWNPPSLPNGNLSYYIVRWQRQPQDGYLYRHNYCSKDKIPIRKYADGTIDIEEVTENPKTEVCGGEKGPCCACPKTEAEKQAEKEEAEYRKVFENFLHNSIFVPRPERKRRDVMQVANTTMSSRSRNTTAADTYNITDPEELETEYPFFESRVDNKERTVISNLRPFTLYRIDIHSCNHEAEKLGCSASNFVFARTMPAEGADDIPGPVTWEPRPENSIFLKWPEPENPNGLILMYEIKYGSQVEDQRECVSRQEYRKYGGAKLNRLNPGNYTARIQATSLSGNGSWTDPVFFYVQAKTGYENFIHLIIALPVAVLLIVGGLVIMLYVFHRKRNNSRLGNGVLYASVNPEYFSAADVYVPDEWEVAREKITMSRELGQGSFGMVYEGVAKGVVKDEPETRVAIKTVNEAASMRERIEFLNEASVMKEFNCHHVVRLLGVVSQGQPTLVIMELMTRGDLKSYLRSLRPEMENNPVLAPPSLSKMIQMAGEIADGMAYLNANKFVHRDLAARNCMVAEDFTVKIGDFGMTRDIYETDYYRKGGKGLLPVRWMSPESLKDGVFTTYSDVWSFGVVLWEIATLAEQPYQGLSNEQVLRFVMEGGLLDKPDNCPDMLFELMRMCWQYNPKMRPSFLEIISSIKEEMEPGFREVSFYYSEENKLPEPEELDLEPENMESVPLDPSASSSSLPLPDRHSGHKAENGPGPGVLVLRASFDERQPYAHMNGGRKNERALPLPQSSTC
Procedure: RTK inhibitors were dissolved in DMSO and diluted with culture medium before being added to cells for 1.5 hour at 37° C. The final concentration of DMSO during the incubation was 0.3% . For some studies, cells were also stimulated with 3 nM IGF-I for 10 minutes at 37° C. Reactions were terminated by rapidly aspirating medium and washing cells three times with ice cold PBS. Cells were harvested and solubilized in 50 mM HEPES, 150 mM NaCl, 1% Triton X-100, 1 mM PMSF, and 2 mM vanadate for 1 hour at 4° C. Protein concentrations were determined by BCA assay (Pierce, Rockford, Ill.). […] Briefly, 10 μg lysate protein were added to triplicate wells in a 96-well plate coated with monoclonal antibody to the IGF-IR (IR3; 2 μg/ml), and incubated for 18 hours at 4° C. Plates were washed five times and then HRP-conjugated anti-phosphotyrosine antibody (0.3 μg/ml), diluted in Solution B (50 mM HEPES, pH 7.6, 150 mM NaCl, 0.05% Tween-20, 1 mM PMSF, 2 mM vanadate and 1 mg/ml bacitracin), was added for two hours at 22° C. Plates were washed five times prior to color development with TMB substrate, which was terminated with 1.0 M H3PO4. Values for receptor phosphorylation were determined by measuring absorbance at 450 nm.

Compound CC/C(=C(\c1ccccc1)c1ccc(OCCN(C)C)cc1)c1ccccc1 [tamoxifen, reference compound] has an inhibition at 0.1 µM (MCF-7/HER2-18 cells) of 24% and an inhibition at 0.1 µM (MCF-7/neo cells) of over 50%.

In the case of COc1cc2ncnc(Nc3ccc(F)c(Cl)c3)c2cc1OCCCN1CCOCC1 [gefitinib, Gefitinib, reference compound], the “IGF-1 stimulated phosphorylation of the IGF-1R” value (IGF-1R) is reported as “only a weak inhibitory effect”.
